In PubChem BioAssay AID248 (DTP/NCI, 2004):
“And” between values parts separate entries of the source, which are not always exact repeats. Equal values may be shown once. Toxic doses and inconclusive results are not listed. Cut-off read from the data, not from the text of the source: active = T/C of 150% or more; inactive = T/C below 125%.

Tested on: L1210 leukemia ip in BDF1 mice, survival T/C
Experiment: NCI In Vivo Anticancer Drug Screen. Data for tumor model L1210 Leukemia (intraperitoneal) in B6D2F1 (BDF1) mice
Conditions: endpoint: mean survival time, higher = longer survival
Method in brief: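 Mice bearing the transplanted tumor received compound or vehicle. Survival of the treated group was divided by that of the vehicle-treated control group to give the ratio.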

[1] = dose: 100.0 mg/kg/injection, schedule: Q01DX009 (ip), vehicle: Klucel (hydroxypropylcellulose) (HPC)
[2] = dose: 100.0 mg/kg/injection, schedule: Q04DX003 (ip), vehicle: Klucel (hydroxypropylcellulose) (HPC)
[3] = dose: 200.0 mg/kg/injection, schedule: Q01DX009 (ip), vehicle: Klucel (hydroxypropylcellulose) (HPC)
[4] = dose: 200.0 mg/kg/injection, schedule: Q04DX003 (ip), vehicle: Klucel (hydroxypropylcellulose) (HPC)
[5] = dose: 400.0 mg/kg/injection, schedule: Q01DX009 (ip), vehicle: Klucel (hydroxypropylcellulose) (HPC)
[6] = dose: 400.0 mg/kg/injection, schedule: Q04DX003 (ip), vehicle: Klucel (hydroxypropylcellulose) (HPC)
[7] = dose: 100.0 mg/kg/injection, schedule: Q01DX001 (ip), vehicle: Klucel (hydroxypropylcellulose) (HPC)
[8] = dose: 200.0 mg/kg/injection, schedule: Q01DX001 (ip), vehicle: Klucel (hydroxypropylcellulose) (HPC)
[9] = dose: 100.0 mg/kg/injection, schedule: Q04DX002 (ip), vehicle: saline
[10] = dose: 100.0 mg/kg/injection, schedule: Q04DX003 (ip), vehicle: saline
[11] = dose: 200.0 mg/kg/injection, schedule: Q04DX002 (ip), vehicle: saline
[12] = dose: 200.0 mg/kg/injection, schedule: Q04DX003 (ip), vehicle: saline
[13] = dose: 400.0 mg/kg/injection, schedule: Q04DX002 (ip), vehicle: saline
[14] = dose: 100.0 mg/kg/injection, schedule: Q01DX001 (ip), vehicle: saline
[15] = dose: 200.0 mg/kg/injection, schedule: Q01DX001 (ip), vehicle: saline
[16] = dose: 50.0 mg/kg/injection, schedule: Q01DX001 (ip), vehicle: carboxymethylcellulose (CMC)
[17] = dose: 100.0 mg/kg/injection, schedule: Q01DX001 (ip), vehicle: carboxymethylcellulose (CMC)
[18] = dose: 200.0 mg/kg/injection, schedule: Q01DX001 (ip), vehicle: carboxymethylcellulose (CMC)
[19] = dose: 400.0 mg/kg/injection, schedule: Q01DX001 (ip), vehicle: carboxymethylcellulose (CMC)

Measured: T/C

Cc1cc(C)c2c(c1C)OC(C)(C)C=C2
inactive: [1] 98 % of control | [2] 98 % of control | [3] 100 % of control | [4] 107 % of control | [5] 97 % of control | [6] 100 % of control

Cc1cccc(Cl)c1NC(N)=O
inactive: [1] 102 % of control | [2] 103 % of control | [3] 102 % of control | [4] 94 % of control | [5] 97 % of control | [6] 95 % of control

O=C(COc1ccc(Cl)c(Cl)c1)Nc1ccc[n+](Cc2cccc(S(=O)(=O)F)c2)c1
inactive: [7] 96 % of control | [8] 97 % of control

CCCC1=NNc2n[nH]c(=S)n2N1
inactive: dose: 12.5 mg/kg/injection, schedule: Q01DX009 (ip), vehicle: Klucel (hydroxypropylcellulose) (HPC) 93 % of control | dose: 25.0 mg/kg/injection, schedule: Q01DX009 (ip), vehicle: Klucel (hydroxypropylcellulose) (HPC) 90 % of control | dose: 50.0 mg/kg/injection, schedule: Q01DX009 (ip), vehicle: Klucel (hydroxypropylcellulose) (HPC) 98 % of control | [2] 100 % of control | [4] 96 % of control

Nc1ccc(CC2=C(Br)CNC(=O)N2)cc1
inactive: [7] 102 % of control | [8] 103 % of control

CCOc1cc(/C=N\N=C\c2ccc(O)c(OCC)c2)ccc1O
inactive: [1] 93 % of control | [3] 94 % of control | [5] 88 % of control

Cn1nc2ccccc2n1
inactive: dose: 25.0 mg/kg/injection, schedule: Q01DX009 (ip), vehicle: saline with Tween-80 97 % of control | dose: 50.0 mg/kg/injection, schedule: Q01DX009 (ip), vehicle: saline with Tween-80 106 % of control | dose: 100.0 mg/kg/injection, schedule: Q01DX009 (ip), vehicle: saline with Tween-80 100 % of control | dose: 100.0 mg/kg/injection, schedule: Q04DX003 (ip), vehicle: saline with Tween-80 116 % of control

CC(/C=N/NC1=NCCN1)=N/NC1=NCCN1
inactive: dose: 15.7 mg/kg/injection, schedule: Q01DX Z (ip), vehicle: carboxymethylcellulose (CMC) 104 % of control | dose: 31.5 mg/kg/injection, schedule: Q01DX Z (ip), vehicle: carboxymethylcellulose (CMC) 101 % of control | dose: 63.0 mg/kg/injection, schedule: Q01DX Z (ip), vehicle: carboxymethylcellulose (CMC) 102 % of control | dose: 126.0 mg/kg/injection, schedule: Q01DX Z (ip), vehicle: carboxymethylcellulose (CMC) 103 % of control | dose: 127.0 mg/kg/injection, schedule: Q01DX Z (ip), vehicle: carboxymethylcellulose (CMC) 106 % of control

O=C(O)C1=C(C2CCCCC2)C(=O)c2ccccc21
inactive: dose: 75.0 mg/kg/injection, schedule: Q01DX001 (ip), vehicle: other 112 % of control | dose: 150.0 mg/kg/injection, schedule: Q01DX001 (ip), vehicle: other 93 % of control | dose: 300.0 mg/kg/injection, schedule: Q01DX001 (ip), vehicle: other 102 % of control

C[n+]1ccc(/C(N)=N/O)cc1
inactive: dose: 25.0 mg/kg/injection, schedule: Q01DX009 (ip), vehicle: saline 94 % of control and 106 % of control | dose: 50.0 mg/kg/injection, schedule: Q01DX009 (ip), vehicle: saline 104 % of control and 105 % of control | dose: 100.0 mg/kg/injection, schedule: Q01DX009 (ip), vehicle: saline 101 % of control and 107 % of control | [9] 105 % of control | [10] 101 % of control | [11] 107 % of control | [12] 97 % of control | [13] 96 % of control

COC(=O)C(NC(=O)C(NC(=O)Cc1ccccc1)SCc1ccccc1)=C(C)C (stereo not drawn)
inactive: [10] 95 % of control | [12] 89 % of control

COC(=O)/C(=C\c1ccccc1)CNC(C)(C)C
inactive: [14] 100 % of control | [15] 97 % of control

C1=Cc2ccccc2C(c2ccccc2)S1 (stereo not drawn)
inactive: [9] 103 % of control | [11] 98 % of control | [13] 103 % of control

CCOC(=O)C(C)C(=O)c1ccccc1 (stereo not drawn)
inactive: [16] 107 % of control | [17] 102 % of control | [14] 95 % of control | dose: 100.0 mg/kg/injection, schedule: Q01DX009 (ip), vehicle: acetone 96 % of control | [18] 107 % of control | [15] 94 % of control | dose: 200.0 mg/kg/injection, schedule: Q01DX009 (ip), vehicle: acetone 93 % of control | [19] 107 % of control | dose: 400.0 mg/kg/injection, schedule: Q01DX001 (ip), vehicle: saline 94 % of control | dose: 400.0 mg/kg/injection, schedule: Q01DX009 (ip), vehicle: acetone 98 % of control

CC(C)=CCCC(C)CCO (stereo not drawn)
inactive: [14] 94 % of control | [15] 100 % of control

O=C1C(Cl)=C(Nc2ccc(Cl)cc2)C(=O)c2ccccc21
inactive: [16] 95 % of control | [17] 89 % of control | [18] 98 % of control | [19] 93 % of control

C1=C(c2ccccc2)N(Cc2ccccc2)C(c2ccccc2)=CN1Cc1ccccc1
inactive: dose: 50.0 mg/kg/injection, schedule: Q04DX002 (ip), vehicle: saline with Tween-80 105 % of control | dose: 100.0 mg/kg/injection, schedule: Q04DX002 (ip), vehicle: Klucel (hydroxypropylcellulose) (HPC) 107 % of control | dose: 100.0 mg/kg/injection, schedule: Q04DX002 (ip), vehicle: saline with Tween-80 96 % of control | dose: 200.0 mg/kg/injection, schedule: Q04DX002 (ip), vehicle: Klucel (hydroxypropylcellulose) (HPC) 96 % of control | dose: 200.0 mg/kg/injection, schedule: Q04DX002 (ip), vehicle: saline with Tween-80 96 % of control | dose: 400.0 mg/kg/injection, schedule: Q04DX002 (ip), vehicle: Klucel (hydroxypropylcellulose) (HPC) 111 % of control

CCCCC(NC(=O)C(F)(F)F)C(=O)O (stereo not drawn)
inactive: dose: 100.0 mg/kg/injection, schedule: Q01DX009 (ip), vehicle: carboxymethylcellulose (CMC) 105 % of control | dose: 200.0 mg/kg/injection, schedule: Q01DX009 (ip), vehicle: carboxymethylcellulose (CMC) 96 % of control

CC(C)CC(NS(=O)(=O)Cc1ccccc1)C(=O)NNc1ccccc1 (stereo not drawn)
inactive: dose: 100.0 mg/kg/injection, schedule: Q01DX001 (ip), vehicle: other 97 % of control | dose: 100.0 mg/kg/injection, schedule: Q04DX003 (ip), vehicle: other 95 % of control | dose: 200.0 mg/kg/injection, schedule: Q01DX001 (ip), vehicle: other 94 % of control | dose: 200.0 mg/kg/injection, schedule: Q04DX003 (ip), vehicle: other 91 % of control | dose: 400.0 mg/kg/injection, schedule: Q01DX001 (ip), vehicle: other 92 % of control

C[N+](C)(C)Cn1nnc2ccccc21
inactive: dose: 75.0 mg/kg/injection, schedule: Q01DX001 (ip), vehicle: saline 105 % of control | dose: 150.0 mg/kg/injection, schedule: Q01DX001 (ip), vehicle: saline 108 % of control

Cc1ccc(S(=O)(=O)Oc2ccc(Cl)cc2)cc1
inactive: [1] 102 % of control | [2] 105 % of control | [3] 98 % of control | [4] 97 % of control | [5] 102 % of control | [6] 101 % of control
